Laboratory results published in article PMC10178562, “Synthesis and Characterisation of Fluorescent Novel Pt(II) Cyclometallated Complexes with Anticancer Activity” (International Journal of Molecular Sciences, 2023).

Assays:
A2780 Ovarian = assay: MTT cytotoxicity A2780; format: cell-based; details: read-out: GI50 Concentration That Inhibits Cell Growth by 50%, 72 h
Protocol: (§1) Cytotoxicity assay studies were performed at Calvary Mater Newcastle Hospital, Waratah, NSW, Australia. In vitro studies were performed according to described methods. Complexes were prepared in DMSO as stock treatment (30 mM) solutions and stored at −20 °C. All cell lines were cultured in a humidified atmosphere with 5% CO2 at 37 °C and maintained in Dulbecco’s modified eagle’s medium (DMEM; Trace Biosciences, Melbourne, Australia) supplemented with 10% foetal bovine serum, sodium bicarbonate (10 mM), penicillin (100 IU mL^−1), streptomycin (100 μg mL^−1), and L-glutamine (4 mM). The non-cancer MCF10A cell line was cultured in DMEM.F12 (1:1) cell culture media (Composition in SI). Cytotoxicity was determined by plating cells in duplicate in 100 μL medium at a density of 2500–4000 cells per well in 96-well plates. After 24 h, when cells were in logarithmic growth, media (100 μL) with or without the test agent were added to each well (day 0). After 72 h of exposure, growth inhibitory effects were evaluated by MTT (3-[4,5-dimethylthiazol-2-yl]-2,5-diphenyltetrazolium bromide) assay, and absorbance was read at 540 nm. […] These calculations were based on the difference between the optical density values on day 0 and those at the end of drug exposure.

calf thymus DNA (ctDNA) [1] = assay: Direct ctDNA binding by inherent fluorescence (Benesi–Hildebrand); details: inherent fluorescence method, 10 µM CMC, buffer pH 7.0
Protocol: ctDNA experiments utilising the inherent fluorescence of the complexes were completed in addition to the FID experiments. […] The values of Ka and n for the compounds are listed in Table 4, where R^2 is the linear correlation coefficient for Ka.
The direct fluorescent measurements of DNA binding constants were also obtained with the same fluorimeter using 10 mm path length quartz cells. A 0.065 M stock solution of ctDNA was titrated into a 10 µM solution of CMCs 1–3 in a 40 mM K2HPO4/KH2PO, 10 mM KCl buffer at pH 7.0. The fluorescence was measured from 550 to 750 nm excited at 320 nm inverting 4 times and waiting 3 min between the addition of ctDNA and scan time to allow adequate time for the CMCs to interact with the DNA.

H460 Lung = assay: MTT cytotoxicity H460; format: cell-based; details: read-out: GI50 Concentration That Inhibits Cell Growth by 50%, 72 h
Protocol: as §1

BE2-C Neuroblastoma = assay: MTT cytotoxicity BE2-C; format: cell-based; details: read-out: GI50 Concentration That Inhibits Cell Growth by 50%, 72 h
Protocol: as §1

U87 Glioblastoma = assay: MTT cytotoxicity U87; format: cell-based; details: read-out: GI50 Concentration That Inhibits Cell Growth by 50%, 72 h
Protocol: as §1

ADDP Cis Res Ovarian = assay: MTT cytotoxicity ADDP; format: cell-based; details: read-out: GI50 Concentration That Inhibits Cell Growth by 50%, 72 h
Protocol: as §1

SJ-G2 Glioblastoma = assay: MTT cytotoxicity SJ-G2; format: cell-based; details: read-out: GI50 Concentration That Inhibits Cell Growth by 50%, 72 h
Protocol: as §1

HT29 Colon = assay: MTT cytotoxicity HT29; format: cell-based; details: read-out: GI50 Concentration That Inhibits Cell Growth by 50%, 72 h
Protocol: as §1

calf thymus DNA (ctDNA) [2] = assay: Fluorescent intercalator displacement (FID) assay, EtBr-saturated ctDNA; format: binding; set-up: Kq (bimolecular quenching constant) / KSV (Stern–Volmer quenching constant): unit not given here; details: buffer pH 7.0
Protocol: To investigate the potential mechanisms of action of complexes 1–3, fluorescent intercalator displacement (FID) experiments and DNA binding experiments utilizing the innate fluorescence were undertaken. For FID experiments, the concentration of a fluorescent intercalator, in this case ethidium bromide (EtBr), that is displaced by the complex under investigation is determined. In a solution of calf-thymus DNA (ctDNA) where is saturated with EtBr, the change in fluorescence is monitored as the complex is titrated into this solution. Once the decrease in fluorescence has stopped, the concentration of the complex allows us to calculate the stoichiometric point of binding, the change in fluorescence at the point of binding (ΔFsat), the binding coefficient (Ka), bimolecular quenching constant (Kq), Stern–Volmer quenching constant (Ksv), the binding constant for fluorescence (KF), and the molar equivalents of CMC (n) at the point of intersection is the experimental stoichiometry of binding. (1) [ctDNA]Tn−∆Fx/∆Fsat=[CMC] (2) ∆Fx/∆Fsat1/n=fraction of ctDNA−CMC complex (3) 1−∆Fx/∆Fsat1/n=fraction free CMC
The fluorescence at 601 nm for each titration was plotted, and the KF and n could be calculated from the intercept and slope, respectively. (4) F0/F=1+Kqτ0CMC=1+KSV[CMC] where F0 is the fluorescence of the binding site in the absence of quencher (CMC), F is the fluorescence of the site containing the CMC, and t0 is the lifetime of the chromophore in the absence of the quencher (Ɛ476 = 5680 for ethidium-bound DNA).
A plot of F0/F against [CMC] using experimental values allows for the determination of Kq and KSV from the slope. (5) log10F0−F/F=nlog10CMC+log10KF where n is the number of ethidium ligands that are displaced per CMC. […] A plot of log10[(F0 − F)/F)] against log10[CMC] is used to determine KF and n from the intercept and slope, respectively. Experiments were performed in triplicate for each CMC.
Fluorescent intercalator displacement (FID) assays were obtained using the same instrument and by using 10 mm quartz cells. Stock solutions CMCs 1–3 (30 µM) were titrated into a solution of […] ethidium bromide, 150 µM ctDNA in a 40 mM K2HPO4/KH2PO, and 10 mM KCl buffer at pH 7.0. The fluorescence was measured from 550 to 750 nm excited at 480 nm and inverting 4 times and waiting 3 min between the addition of ctDNA and scan time to allow adequate time for the CMCs to interact with the DNA.

MCF10A Breast (normal) = assay: MTT cytotoxicity MCF10A (non-cancer); format: cell-based; details: read-out: GI50 Concentration That Inhibits Cell Growth by 50%, 72 h
Protocol: as §1

MIA Pancreas = assay: MTT cytotoxicity MIA; format: cell-based; details: read-out: GI50 Concentration That Inhibits Cell Growth by 50%, 72 h
Protocol: as §1

A431 Skin = assay: MTT cytotoxicity A431; format: cell-based; details: read-out: GI50 Concentration That Inhibits Cell Growth by 50%, 72 h
Protocol: as §1

MCF-7 Breast = assay: MTT cytotoxicity MCF-7; format: cell-based; details: for GI50: read-out: GI50 Concentration That Inhibits Cell Growth by 50%, MCF-7 Breast, 72 h, MTT
Protocol: as §1

Du145 Prostate = assay: MTT cytotoxicity Du145; format: cell-based; details: read-out: GI50 Concentration That Inhibits Cell Growth by 50%, 72 h
Protocol: as §1

[3] = Lipophilicity by RP-HPLC (log Kw); format: physicochemical; details: isocratic 70 to 90% solvent B
Protocol: Lipophilicity was calculated using a RP-HPLC method to determine log Kw, whereby a stock solution was injected at different isocratic ratios ranging from 70 to 90% solvent B (organic) at a flow rate of 1 mL min^−1. These experiments were undertaken on an Agilent Technologies 1260 Infinity machine equipped with a Phenomenex Onyx™ Monolithic C18 reverse phase column (100 × 4.6 mm, 130 Å). The mobile phase comprised 0.06% TFA in water (solvent A) and 0.06% TFA in ACN:H2O (90:10, solvent B). The dead zero volume time was determined using potassium iodide as an external dead volume marker, further details are provided in the Supplementary Materials.

Compound | GI50 (A2780 Ovarian) [µM] | Ka (binding constant) (calf thymus DNA (ctDNA) [1]) | GI50 (H460 Lung) [µM] | GI50 (BE2-C Neuroblastoma) [µM] | GI50 (U87 Glioblastoma) [µM] | GI50 (ADDP Cis Res Ovarian) [µM] | GI50 (SJ-G2 Glioblastoma) [µM] | GI50 (HT29 Colon) [µM] | KSV (Stern–Volmer quenching constant) (calf thymus DNA (ctDNA) [2]) | Ka (binding coefficient) (calf thymus DNA (ctDNA) [2]) | Kf (binding constant for fluorescence) (calf thymus DNA (ctDNA) [2]) | Kq (bimolecular quenching constant) (calf thymus DNA (ctDNA) [2]) | Point of Experimental Stoichiometry of Binding (calf thymus DNA (ctDNA) [2]) | n (number of ethidium ligands displaced per CMC) (calf thymus DNA (ctDNA) [2]) | ΔFsat (change in fluorescence at the point of binding) (calf thymus DNA (ctDNA) [2]) | GI50 (MCF10A Breast (normal)) [µM] | GI50 (MIA Pancreas) [µM] | GI50 (A431 Skin) [µM] | GI50 (MCF-7 Breast) [µM] | GI50 (Du145 Prostate) [µM] | further results
[Pt(DiBequ)(RRDACH)]+ [Complex 3b] | 4.5 ± 0.3 | 3.68 × 10^4 | 8.2 ± 2.9 | 33 ± 1.2 | 4.1 ± 0.3 | 6.9 ± 0.4 | 10.1 ± 2.6 | 16 ± 0.3 | 1.727 | 3.98 × 10^4 | 4.22 | 0.297 | 2.62 | 0.757 | 82.38 | 8.5 ± 1.4 | 12.5 ± 2 | 3.9 ± 0.4 | 4.2 ± 0.3 | 16 ± 1.5 | Lipophilicity × 10^−2 (log Kw) [3]: 0.4 ± 0.029 × 10^−2
Cc1c(C)c2cccnc2c2ncccc12.N[C@H]1CCCC[C@@H]1N.[Pt] [Complex 56MESS, reference compound] | 0.03 ± 0.004 | – | 0.037 ± 0.009 | 0.1 ± 0.016 | 0.076 ± 0.014 | – | 0.074 ± 0.018 | – | – | – | – | – | – | – | – | 0.032 ± 0.007 | 0.015 ± 0.002 | 0.051 ± 0.021 | 0.05 ± 0.02 | 0.007 ± 0.002 | SI = GI50 for normal cells/GI50 for cancer cells (MCF10A/MCF-7) (MCF-7 Breast): 0.64
[Pt(Pepy)(RRDACH)]+ [Complex 1b] | 31 ± 2.9 | 1.46 × 10^4 | 25 ± 2.9 | 38 ± 4.6 | 23 ± 2.2 | 26 ± 0.6 | 20 ± 4.8 | 41 ± 2.7 | 1.957 | 1.58 × 10^4 | 4.23 | 0.328 | 2.65 | 0.757 | 86.38 | 32 ± 2.7 | 41 ± 2 | 29 ± 2.6 | 13 ± 1.7 | 41 ± 0.9 | Lipophilicity × 10^−2 (log Kw) [3]: 1.52 ± 0.063 × 10^−2
[Pt(Bequ)( SSDACH)]+ [Complex 2a] | 18 ± 2.3 | 1.11 × 10^4 | 11 ± 1.5 | 23 ± 3.5 | 8.6 ± 1.1 | 14 ± 0.3 | 13 ± 2.2 | 16 ± 1.3 | 1.339 | 1.58 × 10^4 | 3.25 | 0.241 | 2.52 | 0.592 | 89.29 | 20 ± 1 | 20 ± 3 | 12 ± 2.4 | 5.4 ± 1 | 26 ± 2 | Lipophilicity × 10^−2 (log Kw) [3]: 2.06 ± 0.097 × 10^−2
N.N.[Cl][Pt][Cl] [Cisplatin, cisplatin, reference compound] | 1 ± 0.1 | – | 0.9 ± 0.2 | 1.9 ± 0.2 | 3.8 ± 1.1 | – | 0.4 ± 0.1 | 11.3 ± 1.9 | – | – | – | – | – | – | – | – | 7.5 ± 1.3 | 2.4 ± 0.3 | 6.5 ± 0.8 | 1.2 ± 0.1 | –
[Pt(Bequ)(RRDACH)]+ [Complex 2b] | 5 ± 0.3 | 1.39 × 10^4 | 8.1 ± 1 | 48 ± 1.7 | 4.3 ± 0.3 | 19 ± 3 | 10 ± 2.2 | 30 ± 2.3 | 1.662 | 1.59 × 10^4 | 3.78 | 0.271 | 2.47 | 0.668 | 89.01 | 10.3 ± 1.9 | 8.1 ± 1.6 | 3.4 ± 0.3 | 7.7 ± 2 | 20 ± 2.7 | SI = GI50 for normal cells/GI50 for cancer cells (MCF10A/MCF-7) (MCF-7 Breast): 1.33; Lipophilicity × 10^−2 (log Kw) [3]: 3.97 ± 0.053 × 10^−2
[Pt(DiBequ)(SSDACH)]+ [Complex 3a] | 12 ± 0.9 | 1.11 × 10^4 | 16 ± 0.9 | 9 ± 1.3 | 16 ± 0.6 | 15 | 17 ± 0.6 | 16 | 1.342 | 1.07 × 10^4 | 3.18 | 0.237 | 2.38 | 0.579 | 91.83 | 16 ± 0.6 | 15 ± 0.7 | 14 ± 0.6 | 15 ± 0.5 | 23 ± 2.1 | SI = GI50 for normal cells/GI50 for cancer cells (MCF10A/MCF-7) (MCF-7 Breast): 1.07; Lipophilicity × 10^−2 (log Kw) [3]: 0.77 ± 0.032 × 10^−2
[Pt(Pepy)(SSDACH)]+ [Complex 1a] | 12 ± 0.7 | 2.20 × 10^4 | 5.8 ± 0.4 | 34 ± 7.5 | 5.3 ± 0.3 | 5.1 ± 0.3 | 11 ± 0.7 | 13 ± 1 | 1.988 | 2.75 × 10^4 | 4.35 | 0.329 | 2.84 | 0.778 | 83.82 | 6.4 ± 0.5 | 8 ± 1.6 | 4.2 ± 0.5 | 8.4 ± 2 | 9 ± 2 | SI = GI50 for normal cells/GI50 for cancer cells (MCF10A/MCF-7) (MCF-7 Breast): 0.76
